Entries after “also recorded” stand apart in the source; their conditions may differ.
Key:
[1] = tested on: vascular smooth muscle cells; assay: BrdU incorporation assay; assay type: cell-based, mouse; set-up: effect on BrdU labelling indices: dose or concentration left out as unconfirmed
Protocol: Mouse vascular smooth muscle cells, isolated as described (13), were maintained in 231 media (Cascade Biologics, Portland, Oreg.) supplemented with SMGS (Cascade Biologics) in a humidified incubator at 37° C. with 5% CO2. Cells from passages 4-9 were used in all experiments. All experiments were performed in subconfluent, unsynchronized cells growing in SMGS except for the lamellipodium formation assay.
Vascular smooth muscle cells were seeded at 2×10^4 cells per well in 96-well culture plates and incubated overnight. The next day, cells were found approximately 60-70% confluent. Cells were treated with various concentrations of morelloflavone ([…]) for 2 hrs and then pulsed with BrdU at 1 mM for 8 hrs. The amount of BrdU incorporated into the cells was quantified by BrdU Cell Proliferation Assay kit (Calbiochem, San Diego, Calif.), according to manufacturer's instructions. Briefly, the cells were fixed and permeabilized on tissue culture plastic, and incubated with anti-BrdU monoclonal antibody. After extensive washing, bound antibodies were visualized by goat anti-mouse IgG conjugated to horseradish peroxidase and tetra-methylbenzidine substrate and quantified by spectrophotometer at 450 nm. The protein content was determined using the Bradford assay (Bio-Rad, Hercules, Calif.).

RhoA = assay: GTPase activation assay, RhoA; assay type: cell-based, mouse; details: 0.1 mM; low concentrations 0.1 & 1 mM
Protocol: To assess the phosphorlyation status of ERK, […] of whole cell lysates was loaded onto SDS-PAGE, and Western blot analysis was done using anti-p-ERK (Santa Cruz; E-4; sc-7383) and anti-ERK (Santa Cruz; K-23; sc-94) antibodies. To detect active RhoA, Rac1 and Cdc42, generated GST-tagged RhoA binding domain of Rhotekin protein (GST-Rhotekin-RBD) and GST-tagged p21-binding domain of p21-activated kinase 1 (PAK1)(GST-PAK1-PBD) were first generated. Briefly, E. coli BL21 cells transformed with pGEX4T-PAK1-PBD or pGEX4T-Rh,otekin-RBD were grown at 37° C. and expression of recombinant protein was induced by addition of 0.1 mM IPTG for 3 hours. Cells were resuspended in lysis buffer (50 mM Tris-HCl, pH 8.0, 10% glycerol, 20% sucrose, 2 mM DTT, 1 mg/ml leupeptin, 1 mg/ml pepstatin, and 1 mg/ml aprotinin), sonicated, and centrifuged at 4° C. for 30 min at 45,000 g. The supernatant was incubated with glutathione sepharose 4B beads (GE-Amersham, Piscataway, N.J.) for 1 hour at 4° C., and then washed 3 times in lysis buffer. Using these GST-proteins, GTPase activation assays were performed as described. […]

In the case of O=C1c2c(O)cc(O)cc2O[C@H](c2ccc(O)cc2)[C@H]1c1c(O)cc(O)c2c(=O)cc(-c3ccc(O)c(O)c3)oc12 [morelloflavone, 5,7, 4′, 5″, 7″, 3″, 4″-heptahydroxy-[3,8″]-flavonylflavanone], the “effect on BrdU labelling indices” value [1] is reported as “decreases BrdU labelling indices”, the “effect on percentage of S-phase cells / DNA synthesis (BrdU)” value ([1]; concentrations up to 10 mM) is reported as “did not significantly affect DNA synthesis; also recorded: does not affect the percentage of S-phase cells; also recorded: does not affect cell cycle progression” and the “activation of RhoA” value (RhoA) is reported as “inhibited; also recorded: blocks the activation”.
